Viability data for 79 molecules are collected here from publication PMC12040169 (PLOS Biology, 2025).

In general, viability refers to a read-out of living cells in per cent, often relative to untreated cells.

The first data set in a line: in vitro. To be noted: human, hela cells, % viability.
Turning to `O=C(NCCCN1CCOCC1)c1c(Cl)cccc1Cl` [CBK263631], the viability at 28.5 h, 10 µM was 93%.

Turning to `CC1(C)CC(=O)c2sc(NC(=O)Cc3ccc(Cl)c(Cl)c3)nc2C1` [CBK144103], the viability at 28.5 h, 10 µM amounted to 93.7%.

In the case of `COCc1ccc(C(=O)N2CCC(c3cc4cnccc4[nH]3)CC2)o1` [CBK283073], the viability at 28.5 h, 10 µM was 90.9%.

Consider `O=C(O)C1CC1C(=O)N1CC2(CCCC2)c2c(F)cccc21` (stereo not shown) [CBK306360], for which the viability at 28.5 h, 10 µM worked out at 112%.

For `COC(=O)C(CC(C)C)Nc1nc(OC)cc(OC)n1` (stereo not shown) [CBK058765], the viability at 28.5 h, 10 µM worked out at 121%.

For the molecule `CS(=O)(=O)c1ccc(-c2cccc(COC3CCN(C(=O)Cc4c[nH]cn4)CC3)c2)cc1` [CBK149515], the viability at 28.5 h, 10 µM was found to be 90.9%.

`Cc1nn(CC(C)C)c(C)c1CCC(=O)N(C)Cc1c(C)nn(-c2ccccc2)c1C` [CBK295301]: the viability at 28.5 h, 10 µM is 108%.

As for `O=C(NC1CC1)c1ccc(-c2cnc3[nH]c(=O)n(-c4ccc5[nH]ccc5c4)c3n2)cc1` [CBK064916], the viability at 28.5 h, 10 µM was 103%.

On to `O=C1N(CN2CCN(C(c3ccccc3)c3ccccc3)CC2)c2ccccc2C12OCCO2` [CBK265537], for which the viability at 28.5 h, 10 µM is 87.1%.

`COCc1ccsc1C(=O)Nc1ncn(CC(=O)N2CCCCCC2)n1` [CBK304160]: the viability at 28.5 h, 10 µM amounted to 94.9%.

For the molecule `CS(=O)(=O)Nc1cc2ccccc2c(-c2ccsc2)n1` [CBK085748], the viability at 28.5 h, 10 µM amounted to 89.7%.

In the case of `Cc1ccc(C2=CCN(C(=O)c3cccc(S(=O)(=O)N(C)C)c3)CC2)cc1` [CBK298273], the viability at 28.5 h, 10 µM was 90.9%.

`COc1ccc(Nc2cc(-c3ccsc3)ncn2)cc1OC` [CBK090820]: the viability at 28.5 h, 10 µM came to 97.2%.

For `COCC(=O)N1CCc2sccc2C1c1ccc(NCc2ccc(OC)cc2)cc1` (stereo not shown) [CBK286458], the viability at 28.5 h, 10 µM came to 85.1%.

In the case of `CC(=O)N1CCC(c2nc(Cc3cccs3)no2)C1` (stereo not shown) [CBK282998], the viability at 28.5 h, 10 µM came out at 108%.

As to `CCN(CC)c1ccc(C(=O)Cn2c(=O)n(S(=O)(=O)c3ccc4ccccc4c3)c3ccccc32)cc1` [CBK106505], the viability at 28.5 h, 10 µM worked out at 88.9%.

For `CC(NC(=O)c1ncoc1-c1ccc(F)cc1)c1ccncc1` (stereo not shown) [CBK282319], the viability at 28.5 h, 10 µM is 100%.

On to `COc1ccc([N+](=O)[O-])cc1-c1ccc(-c2nc(-c3ccccc3)c(-c3ccccc3)[nH]2)o1` [CBK262497], for which the viability at 28.5 h, 10 µM was 77.3%.

As to `O=C1NCCCC12CCN(Cc1ccccc1N1CCCCC1)CC2` [CBK284878], the viability at 28.5 h, 10 µM is 95.5%.

Turning to `O=C(O)/C=C/c1cn([C@@H]2O[C@H](CO)[C@H](O)C2O)c(=O)[nH]c1=O` (stereo partly shown) [CBK201270], the viability at 28.5 h, 10 µM was 96.7%.

On to `CCOC(=O)c1cnc2ccc(F)cc2c1N1CCN(C)CC1` [CBK304376], for which the viability at 28.5 h, 10 µM is 90.1%.

Take `COc1ccc(F)cc1-c1ccc(CC2(C(=O)NC3CCCCC3)CCOCC2)cc1` [CBK285538]: the viability at 28.5 h, 10 µM was determined as 86.6%.

On to `c1c2c(cc3sc(N4CCCCC4)nc13)OCCO2` [CBK287497], for which the viability at 28.5 h, 10 µM is 89.3%.

For the molecule `O=C(CN1CCOCC1)N1CCN(C(=O)c2ccc(C(F)(F)F)cc2)C1` [CBK051555C], the viability at 28.5 h, 10 µM was 92.1%.

As to `Cc1noc(C)c1CC(=O)N1[C@H]2CCCCCN(C)[C@@]2(C)C[C@H]1c1ccccc1` [CBK286094], the viability at 28.5 h, 10 µM stood at 85.8%.

In the case of `N#Cc1ccccc1-c1ccc(CSc2cccc(F)c2)cc1` [CBK002920], the viability at 28.5 h, 10 µM stood at 107%.

With `O[C@@H]1CN(Cc2ccccc2F)CC[C@H]1N1CCCC1` [CBK282934], the viability at 28.5 h, 10 µM was 96.9%.

For the molecule `Cc1cccc(C(C)(C)C)c1OCCn1ccnc1` [CBK265084], the viability at 28.5 h, 10 µM came out at 109%.

For the molecule `Cc1nc2cccnc2n1CCNC(=O)Cc1cccs1` [CBK283592], the viability at 28.5 h, 10 µM was 107%.

Turning to `Nc1ncc(-c2cc(C(F)(F)F)cc(C(F)(F)F)c2)nc1N1CCN(CCO)CC1` [CBK063426], the viability at 28.5 h, 10 µM turned out to be 103%.

With `O=C1CC(c2cccnc2)=NN1c1ccc(Cl)cc1Cl` [CBK067764], the viability at 28.5 h, 10 µM was determined as 97.7%.

With `Cc1nc2nc(N)nn2c(C)c1CCC(=O)OCc1cccc(C#N)c1` [CBK306083], the viability at 28.5 h, 10 µM came out at 88.1%.

As to `Cc1nn(CC(=O)NCC(c2cccnc2)N2CCOCC2)c(C)c1Cl` (stereo not shown) [CBK304659], the viability at 28.5 h, 10 µM stood at 118%.

Regarding `CC(=O)Nc1ccc(C(=O)CSc2nc(-c3ccccc3)cs2)cc1` [CBK268038], the viability at 28.5 h, 10 µM was 101%.

Take `COc1ccccc1NC(=O)CCn1c(C(F)F)cc2cccnc21` [CBK285065]: the viability at 28.5 h, 10 µM came out at 99.2%.

Take `CC(C)[C@@H](CO)Nc1cc(-c2cccc(Br)c2)nc2ccnn12` [CBK037117]: the viability at 28.5 h, 10 µM was found to be 93.9%.

On to `CC(C)CCCC(C)NC(=O)COc1cc(C(=O)O)cc(C(=O)O)c1` (stereo not shown) [CBK296646], for which the viability at 28.5 h, 10 µM is 86.8%.

Regarding `O=C1COC[C@H]([C@H](O)c2ccc(NC(=O)c3cnccn3)cc2)N1` [CBK289673], the viability at 28.5 h, 10 µM was found to be 104%.

For the molecule `COCCc1nsc(N2CCC(Oc3cccnc3N(C)C)C2)n1` (stereo not shown) [CBK305418], the viability at 28.5 h, 10 µM came to 98.8%.

On to `Cc1cc(NC(=O)c2cscn2)c2ccccc2n1` [CBK116275], for which the viability at 28.5 h, 10 µM amounted to 85.6%.

In the case of `O=C(c1cccnc1)N1CCC(c2cc3ccccc3cn2)CC1` [CBK284891], the viability at 28.5 h, 10 µM is 101%.

As for `c1ccc2c(c1)OCC(c1nn3cnnc3s1)O2` (stereo not shown) [CBK269277], the viability at 28.5 h, 10 µM was 111%.

As for `CS(=O)(=O)Nc1ncc(-c2ccco2)cc1C(=O)NCc1ccc(F)cc1` [CBK076479], the viability at 28.5 h, 10 µM came to 112%.

Turning to `CSc1nc(-n2nc(C)cc2C)c2c3c(sc2n1)COC(C)(C)C3` [CBK268906], the viability at 28.5 h, 10 µM is 89.7%.

In the case of `Cc1c(C)[n+]([O-])c2cc(N3CCN(C)CC3)c(Cl)cc2[n+]1[O-]` [CBK263503], the viability at 28.5 h, 10 µM amounted to 96.3%.

For the molecule `CS(=O)(=O)c1ccc(-n2nnnc2CNC2(CO)CCCC2)cc1` [CBK304134], the viability at 28.5 h, 10 µM stood at 91.8%.

Take `CCc1nnc(NS(=O)(=O)c2ccc(Nc3ccc4nonc4c3[N+](=O)[O-])cc2)s1` [CBK261445]: the viability at 28.5 h, 10 µM came to 98%.

In the case of `O=C(CN1CCCCC1)Nc1ccc(S(=O)(=O)N2CCOCC2)cc1` [CBK265577], the viability at 28.5 h, 10 µM turned out to be 90.2%.

Consider `CC(C)(C)C(=O)Nc1ccc(F)c(C(=O)N2CCc3[nH]ncc3C2)c1` [CBK305303], for which the viability at 28.5 h, 10 µM was 104%.

Regarding `COc1ccc(OCCN2CCC(C(=O)c3ccc(F)cc3)CC2)cc1` [CBK149136], the viability at 28.5 h, 10 µM turned out to be 104%.

In the case of `CCN(CC)CCCNC(=O)N1CCN(c2ccc(F)cc2)CC1` [CBK156419], the viability at 28.5 h, 10 µM amounted to 88.6%.

Take `O=C(O)C(O)C(O)C(O)CO` (stereo not shown) [CBK278306G]: the viability at 28.5 h, 10 µM is 89.3%.

In the case of `C=CCNC(=O)C1CCN(c2nc3ccccc3n2CC)CC1` [CBK283920], the viability at 28.5 h, 10 µM amounted to 113%.

In the case of `N#Cc1cn(Cc2ccco2)c(=O)[nH]c1=O` [CBK010407], the viability at 28.5 h, 10 µM worked out at 101%.

Consider `CCCc1c(O)nc(SCC(=O)NCc2ccco2)[nH]c1=O` [CBK073278], for which the viability at 28.5 h, 10 µM was 95.2%.

In the case of `O=C(NCC(O)c1ccc2ccccc2c1)c1cnc(-c2ccccc2)c(-c2ccncc2)c1` (stereo not shown) [CBK037438], the viability at 28.5 h, 10 µM is 91%.

Consider `c1ccc(CNCc2nc(-c3ccccc3)no2)cc1` [CBK024404], for which the viability at 28.5 h, 10 µM stood at 99.1%.

On to `CC(NC(=O)c1cccc(Oc2ccccc2)c1)c1ccncc1` (stereo not shown) [CBK270327], for which the viability at 28.5 h, 10 µM was determined as 91.3%.

Turning to `COC(=O)c1cn(C(=O)CCCN2C(=O)c3ccccc3C2=O)c2ccccc12` [CBK266799], the viability at 28.5 h, 10 µM was 91.7%.

Turning to `CC(C)(C)CN1CCC(Oc2nccnc2OCc2ccc(Br)cc2F)CC1` [CBK161946], the viability at 28.5 h, 10 µM is 116%.

As for `CC(C)n1c(SCC(=O)Nc2nc(C(C)(C)C)cs2)nc2c1c(=O)n(C)c(=O)n2C` [CBK127417], the viability at 28.5 h, 10 µM was 104%.

As for `Cc1cc(C)c(C)c(S(=O)(=O)Nc2ccc(O)c(Sc3nc[nH]n3)c2)c1C` [CBK267012], the viability at 28.5 h, 10 µM amounted to 66.6%.

With `Nc1ccc(Cc2ccc(N)c(O)c2)cc1O` [CBK261149], the viability at 28.5 h, 10 µM was 100%.

For `CS(=O)(=O)N1CCN(c2ccccc2NC(=O)Cc2ccc(Cl)cc2)CC1` [CBK267605], the viability at 28.5 h, 10 µM amounted to 94.9%.

On to `CCc1nnc(NC(=O)c2cc(OC)c(OC)c(OC)c2)s1` [CBK058342], for which the viability at 28.5 h, 10 µM was determined as 93.1%.

On to `O=S(=O)(c1cccs1)N1CCC2(CC1)OCCO2` [CBK057295], for which the viability at 28.5 h, 10 µM was 95.1%.

Take `CNC(=O)c1oc(-c2ccc(OC)cc2)c(-c2ccc(OC)cc2)c1C(=O)NC` [CBK001956]: the viability at 28.5 h, 10 µM was found to be 90.9%.

As for `CC(C)(O)C#Cc1ccc(C(=O)N2CCN(C/C=C/c3ccccc3)CC2)s1` [CBK267007], the viability at 28.5 h, 10 µM was found to be 99.5%.

With `Cn1c(Cc2cccc3ccccc23)nnc1SCC(=O)Nc1ccccc1F` [CBK265856], the viability at 28.5 h, 10 µM amounted to 85%.

For the molecule `Nc1nonc1-n1nnc(C(=O)N/N=C2\CCc3ccccc32)c1-c1ccccc1` [CBK261988], the viability at 28.5 h, 10 µM came to 95.1%.

Regarding `O=C(CN1C2CCC1CC(O)(c1ccccc1F)C2)NCC1CC1` (stereo not shown) [CBK281942], the viability at 28.5 h, 10 µM was determined as 93.4%.

Take `CCOc1ccc(-c2ccnc(NCCNC(C)=O)n2)cc1C(=O)O` [CBK306898]: the viability at 28.5 h, 10 µM was found to be 85.1%.

As for `COc1cc(CNc2nccnc2-c2ccc(C(=O)N3CCOCC3)cc2)cc(OC)c1` [CBK036866], the viability at 28.5 h, 10 µM is 99.2%.

In the case of `COC(=O)[C@@H](C)NC(=O)[C@H]1CN(S(=O)(=O)c2ccccc2)CCN1C(C)=O` [CBK289626], the viability at 28.5 h, 10 µM turned out to be 88.2%.

In the case of `CCC(C)C(NC(=O)c1ccccc1NC(=O)c1ccc(OC)cc1)C(=O)O` (stereo not shown) [CBK296090], the viability at 28.5 h, 10 µM was determined as 91.4%.

Take `COc1cc2c(cc1OC)C1c3ccccc3NC(=O)N1CC2` (stereo not shown) [CBK284471]: the viability at 28.5 h, 10 µM was 88%.

Consider `O=C(CCCn1cccn1)N1CCOC(c2ccc(Cl)cc2)C1` (stereo not shown) [CBK304643], for which the viability at 28.5 h, 10 µM amounted to 79.1%.

For the molecule `Cc1ccc(S(=O)(=O)Nc2sccc2C(=O)Nc2ccc(F)cc2)cc1` [CBK042302], the viability at 28.5 h, 10 µM came to 98.5%.

Staying with this data set, now noted: human, hela cells, % viability, bulk resorufin, single well.
Consider `Cc1ccc(C=C2C(=O)NC(=O)NC2=O)cc1[N+](=O)[O-]` [CBK262102], for which the viability at 28.5 h, 10 µM was 97.9%.
